The results in this text go back to patent US4861798A, “Lipoxygenase inhibitory compounds” (Bristol-Myers Company, priority 1987, dated 1989).

Assay [1] has as its system cell infiltration (leukocytes). As to the kind of experiment: Carrageenan sponge implantation model, cell infiltration. Type of assay: in vivo, rat. The settings on record: for Leukocyte No.: 6 h. The text has this: (§1) The carrageenan sponge implantation model is primarily used to measure the effect of antiinflammatory agents on cell infiltration. An acute inflammatory response is stimulated by the implantation of a small sponge beneath the skin of rats. The sponge normally contains an inflammatory stimulus such as carrageenan and produces a response which is characterized by infiltration of cells and accumulation of fluid. The number of cells in the exudate can be conveniently measured in the exudate fluid.
(§2) The compound of Example I was evaluated for its local effect on cell migration and mediator production in this model. For comparison, indomethacin and BW755C were also evaluated after local application. Polyester sponges were soaked in solutions of 0.5% carrageenan (in normal saline) which also contained 1% or 5% wt/vol of the test compound. The impregnated sponge was inserted through a small incision on the dorsal surface of a lightly anesthetized rat into a subcutaneous pocket formed by blunt dissection. The incision was then closed. The control treatment consisted of a sponge soaked in 0.5% carrageenan in normal saline. Animals were sacrificed 6 hours after sponge implantation. Sponges are dissected out an placed in heparinized saline. The number of infiltrating cells were determined using a coulter counter. The inflammatory mediators prostaglandin E2, LTB4 and TxB2 in the exudate were determined by radioimmunoassay.

The test system of assay [2] is inflammatory mediators prostaglandin E2, LTB4 and TxB2. As to the kind of experiment: Carrageenan sponge implantation model, mediator production in exudate. The format is in vivo, rat.
Text: as §1, §2

A further assay has as its target T1, Human Platelet CO (Homo sapiens, UniProt P23219).
T1 construct: Human neutrophils and platelets were obtained from the blood of normal volunteers; endogenous in cells; host or cells: human platelets from blood of normal volunteers
As to the kind of experiment: Inhibition of CO, human platelet. Type of assay: cell-based. The note with it: 95% confidence interval given for some.

The next assay concerns the target T2, Human Platelet 12-LPO (Homo sapiens, UniProt P18054).
T2 construct: Human neutrophils and platelets were obtained from the blood of normal volunteers; endogenous in cells; host or cells: human platelets from blood of normal volunteers
T2 sequence (P18054 1-663): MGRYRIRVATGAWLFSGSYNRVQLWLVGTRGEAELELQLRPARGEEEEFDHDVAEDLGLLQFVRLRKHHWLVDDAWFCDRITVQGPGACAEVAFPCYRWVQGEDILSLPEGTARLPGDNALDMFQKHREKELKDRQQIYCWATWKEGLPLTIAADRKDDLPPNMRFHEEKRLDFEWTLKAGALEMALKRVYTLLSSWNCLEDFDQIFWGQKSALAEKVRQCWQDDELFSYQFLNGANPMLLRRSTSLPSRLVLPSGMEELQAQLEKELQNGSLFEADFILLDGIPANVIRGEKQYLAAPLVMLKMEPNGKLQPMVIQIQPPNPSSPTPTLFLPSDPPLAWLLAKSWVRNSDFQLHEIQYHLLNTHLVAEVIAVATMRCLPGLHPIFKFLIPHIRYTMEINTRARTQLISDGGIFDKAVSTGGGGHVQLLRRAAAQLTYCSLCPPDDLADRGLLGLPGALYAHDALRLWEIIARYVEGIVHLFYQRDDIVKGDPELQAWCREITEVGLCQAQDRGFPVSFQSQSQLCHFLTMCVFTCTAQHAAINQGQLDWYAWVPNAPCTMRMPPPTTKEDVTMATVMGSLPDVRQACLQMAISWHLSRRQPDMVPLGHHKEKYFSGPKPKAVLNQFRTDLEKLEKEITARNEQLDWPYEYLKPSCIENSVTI
As to the kind of experiment: Inhibition of 12-LPO, human platelet. The note with it: @ 100 μM; read-out: % I Human Platelet 12-LPO. Type of assay: cell-based.

Assay [3] has as its target T3, 5-lipoxygenase (Human Leukocyte/PMNL 5-LPO) (Homo sapiens, UniProt P09917).
T3 construct: Human neutrophils and platelets were obtained from the blood of normal volunteers; endogenous in cells; host or cells: human blood leukocytes (neutrophils) of normal volunteers, with 0.1 to 0.5 platelets per leukocyte
T3 sequence (P09917 1-674): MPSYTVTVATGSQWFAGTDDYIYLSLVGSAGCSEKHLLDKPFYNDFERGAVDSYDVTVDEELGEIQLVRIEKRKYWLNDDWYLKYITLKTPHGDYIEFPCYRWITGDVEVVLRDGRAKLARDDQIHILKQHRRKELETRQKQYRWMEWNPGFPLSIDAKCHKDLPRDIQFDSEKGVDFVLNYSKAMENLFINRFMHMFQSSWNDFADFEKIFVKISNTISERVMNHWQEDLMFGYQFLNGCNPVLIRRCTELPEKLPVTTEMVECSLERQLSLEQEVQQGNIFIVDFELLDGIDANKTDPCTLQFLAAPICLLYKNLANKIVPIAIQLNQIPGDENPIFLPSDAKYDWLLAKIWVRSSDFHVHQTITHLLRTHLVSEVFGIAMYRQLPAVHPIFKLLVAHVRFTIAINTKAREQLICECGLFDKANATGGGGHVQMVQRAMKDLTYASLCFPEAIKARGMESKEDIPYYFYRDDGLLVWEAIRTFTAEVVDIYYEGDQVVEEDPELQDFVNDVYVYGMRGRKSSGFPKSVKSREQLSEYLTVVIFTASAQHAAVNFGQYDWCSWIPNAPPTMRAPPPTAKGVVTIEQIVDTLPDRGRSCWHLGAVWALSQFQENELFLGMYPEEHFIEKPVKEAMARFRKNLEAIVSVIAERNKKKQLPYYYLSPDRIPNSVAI
As to the kind of experiment: Inhibition of 5-lipoxygenase (5-HETE formation) in human neutrophil/platelet system. The format is cell-based. The source says: This test is a measure of the inhibition of the synthesis of lipoxygenase products generated by human neutrophils and platelets. The protocol is similar to that described in the article "Comparative Effects of Indomethacin, Acetylenic Acids, 15-HETE, NDGA and BW755C on the Metabolism of Arachidonic Acid in Human Leukocytes and Platelets", H. Solari, P. Braquet and P. Borgeat, Prost. Leuk. Med. 13, pp. 53-60, 1984.
Human neutrophils and platelets were obtained from the blood of normal volunteers. The blood was collected into tubes containing EDTA as an anticoagulant. The blood was centrifuged at 250×g for 15 minutes and the platelet rich plasma was removed. The cell fraction was mixed with an equal volume of 0.9% saline containing 10 mM dextrose and resuspended in Dulbecco's phosphate buffered saline (PBS) without Mg^++ and Ca^++ and was counted. The cell suspension was adjusted to give a leukocyte count of 2-3×10^7 cells/ml.
Test compounds were dissolved in ethanol and added to polypropylene tubes. To control tubes (drug-free) only ethanol was added. The ethanol was evaporated to dryness under a stream of argon and then 0.1 ml of the cell suspension (2-3×10^6 cells) was added. This mixture was pre-incubated for 5 minutes at 37° and then the reaction was initiated by addition of ^3 H-arachidonic acid, calcium ionophore (A23187), and calcium ion. The final concentration of each component was: arachidonic acid, 10 uM; A23187, […]; calcium ion, […]. After 5 minutes the incubations were stopped by addition of an equal volume of methanol. The tubes were spun at 11,000 g for 2 minutes to pellet the precipitated protein. The supernatant was analyzed by HPLC for 5-HETE. The formation of this product is indicative of 5-lipoxygenase activity. Test drugs were evaluated for their ability to inhibit 5-HETE formation. Percent inhibition of varying concentrations of test drugs was determined in duplicate by comparing the peak quantitation in the presence and absence (control) of drug. […] The IC50 values were calculated from log-dose response curves of pooled data from at least two experiments by linear regression analysis.
The activity was tested by the same method as in the previous example.
The enzyme inhibitory activity of these compounds was tested by the same method.

Where [4] appears, read: Experiment 2, 0.5% carrageenan plus 5% compound in sponge, control 33.0 ± 3.8.
Setting [5] is: Experiment 2, 5% compound, control 19.2 ± 1.9.
Setting [6] is: Experiment 2, 5% compound, control 137.6 ± 13.1.
Setting [7] is: Experiment 1, 1% compound, control 3.6 ± 1.3.
Where [8] appears, read: Experiment 1, 1% compound, control 10.8 ± 3.7.
[9] abbreviates: Experiment 1, 1% compound, control 11.8 ± 4.1.

T1 sequence (P23219 24-599): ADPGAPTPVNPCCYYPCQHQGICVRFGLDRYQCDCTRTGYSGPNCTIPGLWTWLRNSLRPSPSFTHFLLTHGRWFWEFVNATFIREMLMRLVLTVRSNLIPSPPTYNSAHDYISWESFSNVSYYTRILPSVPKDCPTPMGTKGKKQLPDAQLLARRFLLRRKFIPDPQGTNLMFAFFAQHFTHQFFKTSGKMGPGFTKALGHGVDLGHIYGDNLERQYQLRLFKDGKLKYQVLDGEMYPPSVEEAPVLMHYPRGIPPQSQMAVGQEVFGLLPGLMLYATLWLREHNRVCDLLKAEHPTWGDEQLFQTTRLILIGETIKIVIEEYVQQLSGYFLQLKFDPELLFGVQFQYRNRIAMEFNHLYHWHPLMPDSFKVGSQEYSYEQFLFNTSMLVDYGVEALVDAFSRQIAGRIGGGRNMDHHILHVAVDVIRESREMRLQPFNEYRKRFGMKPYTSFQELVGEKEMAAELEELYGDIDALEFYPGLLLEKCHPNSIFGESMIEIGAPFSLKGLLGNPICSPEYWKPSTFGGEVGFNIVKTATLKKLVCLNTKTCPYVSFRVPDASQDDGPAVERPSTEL

With `NC1=NN(c2cccc(C(F)(F)F)c2)CC1` [BW755C, reference compound], the “Leukocyte No.” value in assay [1] (setting [4]) was 6.9 ± 1.7 cells/ml (× 10^-6). For the same compound, in assay [1] (dosed at 5%), the “reduction of cell infiltration” value is on record as 79%. In addition, the TXB2 in assay [2] (setting [5]) was 0.8 ± 0.3 ng/ml Exudate. The same compound showed a PGE2 in assay [2] (setting [6]) of 3.0 ± 1.0 ng/ml Exudate.

In general, IC50 refers to the concentration needed to halve the response being measured. A word on the % Inhibition: it is the drop in the measured response relative to a control, in per cent. Low readings indicate a response near the control, high ones a response far below the control. As for `O=C(CCCCCCCCc1ccccc1)NO` [Compound 1, 9-Phenylnonanohydroxamic Acid], the “Leukocyte No.” value in assay [1] (Experiment 1, 0.5% carrageenan plus 1% compound in sponge, control 10.8 ± 1.5) is 6.9 ± .7 cells/ml (× 10^-6); in assay [1] (setting [4]), < 1 cells/ml (× 10^-6). Besides, the “reduction of cell infiltration” value in assay [1] (dosed at 1%) was found to be 36.1%; in assay [1] (dosed at 5%) it was 96.1%. Besides, the “activity in carrageenan sponge implantation model” value in assay [1] (in words) is listed as “found to have activity in this in vivo animal system”. The TXB2 in assay [2] (setting [7]) is recorded as 0.3 ± 0.1 ng/ml Exudate; in assay [2] (setting [5]) it was 4.1 ± 0.9 ng/ml Exudate. Besides, the PGE2 in assay [2] (setting [8]) is 5.7 ± 0.9 ng/ml Exudate; in assay [2] (setting [6]), 21.3 ± 4.1 ng/ml Exudate. The LTB4 turned out to be 2.1 ± 1.0 ng/ml Exudate in assay [2] (setting [9]) and 2.4 ± 0.9 ng/ml Exudate in assay [2] (Experiment 2, 5% compound, control 5.5 ± 0.9). Besides, the IC50 against Human Platelet CO worked out at 15 µM; in assay [3] (FIG. 1 table, 95% confidence interval, read-out: IC50 Human PMNL 5-LPO), 5.7 µM. Besides, the inhibition at 100 µM at Human Platelet 12-LPO turned out to be 33%. Moreover, in assay [3] (4-alkoxyphenyl compounds), the “% Inhibition at 100 μm” value was determined as 98.3%.

As to `COc1ccc2c(c1)c(CC(=O)O)c(C)n2C(=O)c1ccc(Cl)cc1` [Indomethacin, reference compound], the “reduction of cell infiltration” value in assay [1] (dosed at 1%) is reported as “did not significantly reduce cell infiltration”. In assay [2] (setting [7]), the TXB2 was less than 0.5 ng/ml Exudate. Further, the PGE2 in assay [2] (setting [8]) was 1.9 ± 0.3 ng/ml Exudate. Moreover, in assay [2] (setting [9]), the LTB4 came to 1.6 ± 0.5 ng/ml Exudate.
